One assay concerns Type III protein secretion of the chimeric SopE‘-’Bla polypeptide (SPI1 type III protein secretion system). The assay can be described thus: Primary assay: Type III protein secretion of the chimeric SopE'-'Bla polypeptide by Salmonella enterica. It is filed as cell-based. Conditions: read-out: SopE IC50(μM). Summed up: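 Salmonella enterica grown under SPI1-inducing conditions expressed a SopE‘-’Bla fusion, with TEM-1 β-lactamase lacking its signal peptide, with or without test compounds. Nitrocefin added to the cultures was hydrolysed only by the secreted fusion, so the colorimetric signal reports type III secretion, and inhibitors lower it.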
`O=C(N[C@@H](Cc1ccc(Cl)cc1)C(=O)O)/C(=C\c1cccc(C(F)(F)F)c1)NC(=O)c1ccc(Oc2ccccc2)cc1` [Compound 47, (S)-3-(4-Chlorophenyl)-2-[2-(4-phenoxybenzoylamino)-3-(3-trifluoromethyl-phenyl)acryloylamino]propionic acid]: the IC50 was found to be 12.4 µM.

The test system of a further assay is Type III-dependent secretion of ExoU by P. aeruginosa PA103. The assay can be described thus: Tertiary assay: Type III-dependent secretion of ExoU by P. aeruginosa PA103. Conditions: Pseudomonas aeruginosa, ExoU secreted into extracellular medium. It is filed as cell-based. The text has this: Tertiary assay: inhibition of Type III protein secretion of effectors from a Pseudomonas aeruginosa system. Type III protein secretion is used by P. aeruginosa to secrete several essential virulence determinants. One effector of the type III protein secretion system of P. aeruginosa PA103 is the virulence determinants ExoU.
The amount of Type III-dependent secretion of ExoU by P. aeruginosa PA103 can be determined in a cell-based assay by quantification of the 73.9 kDa ExoU protein secreted into the extracellular medium. Such quantitation can be achieved by growing strain PA103 in a deferrated medium in the presence of nitrilotriacetic acid (an inducer of Type III protein secretion in P. aeruginosa) and either in the presence or absence of putative inhibitors. After a prolonged growth period, the cells are sedimented and the supernatants concentrated by ammonium sulfate precipitation. The proteins in the resuspended pellets are separated by electrophoresis on SDS-polyacrylamide gels. After staining gels with Colloidal Blue™, the 73.9 kDa ExoU band is quantitated by scanning through an imager. The effects of inhibitors on the intensity of the ExoU band may be measured relative to that of untreated controls.
The compound `O=C(N[C@@H](Cc1ccc(Cl)cc1)C(=O)O)/C(=C\c1cccc(C(F)(F)F)c1)NC(=O)c1ccc(Oc2ccccc2)cc1` [Compound 47, (S)-3-(4-Chlorophenyl)-2-[2-(4-phenoxybenzoylamino)-3-(3-trifluoromethyl-phenyl)acryloylamino]propionic acid] returned an IC50 of 35.1 µM.

In turn, `O=C(O)C[C@@H](CNC(=O)/C(=C\c1cccc(C(F)(F)F)c1)NC(=O)c1ccc(-c2ccccc2)cc1)c1ccc(Cl)cc1` [Compound 62, (R)-4-[2-[(Biphenyl-4-carbonyl)amino]-3-(3-trifluoromethylphenyl)acryloylamino]-3-(4-chlorophenyl)butyric acid] returned an IC50 of 87.8 µM.

The compound `O=C(N[C@@H](CSCc1ccccc1)C(=O)O)/C(=C\c1cccc(Oc2ccccc2)c1)NC(=O)c1ccc(I)cc1` [Compound 21, (R)-3-Benzylsulfanyl-2-[2-(4-iodobenzoylamino)-3-(3-phenoxyphenyl)-acryloylamino]propionic acid] displayed an IC50 of 69 µM.

Regarding `O=C(N[C@H](COCc1ccccc1)C(=O)O)/C(=C\c1ccc(I)cc1)NC(=O)C1CCN(c2nccc(C(F)(F)F)n2)CC1` [Compound 75, (R)-3-Benzyloxy-2-(3-(4-iodophenyl)-2-{[1-(4-trifluoromethylpyrimidin-2-yl)-piperidine-4-carbonyl]amino}acryloylamino)propionic acid], half-maximal inhibition (IC50) was put at 66.3 µM.

`O=C(N[C@H](COCc1ccccc1)C(=O)O)/C(=C\c1ccc(OC(F)(F)F)cc1)NC(=O)C1CCN(c2nccc(C(F)(F)F)n2)CC1` [Compound 83, (R)-3-Benzyloxy-2-(3-(4-trifluoromethoxyphenyl)-2-{[1-(4-trifluoromethyl-pyrimidin-2-yl)piperidine-4-carbonyl]amino}acryloylamino)propionic acid] had an IC50 of 84.9 µM.

In the case of `O=C(NC(Cc1ccc(Cl)cc1)C(=O)O)/C(=C\c1cccc(C(F)(F)F)c1)NC(=O)c1ccc(-c2ccccc2)cc1` (stereo not drawn) [Compound 97], the half-maximal inhibitory concentration (IC50) turned out to be 13 µM.

`O=C(N[C@@H](CSCc1ccccc1)C(=O)O)/C(=C\c1ccc(Oc2ccc(Cl)cc2)cc1)NC(=O)c1ccc(C(F)(F)F)cc1` [Compound 58, (R)-3-Benzylsulfanyl-2-[3-[4-(4-chlorophenoxy)phenyl]-2-(4-trifluoromethyl-benzoylamino)acryloylamino]propionic acid] gave an IC50 of 48.5 µM.

Take `O=C(N[C@@H](CSCc1ccccc1)C(=O)O)/C(=C\c1ccc(Cl)cc1Cl)NC(=O)c1ccc(-c2ccccc2)cc1` [Compound 102]: half-maximal inhibition (IC50) required 40 µM.

Consider `O=C(N[C@@H](CSCc1ccccc1)C(=O)O)/C(=C\c1ccc(Cl)c(Cl)c1)NC(=O)c1ccc(C(F)(F)F)cc1` [Compound 140], for which the midpoint of inhibition, the IC50, lay at 48 µM.

Turning to `O=C(NC(COCc1ccccc1)C(=O)O)/C(=C\c1ccc(Cl)c(Cl)c1)NC(=O)c1ccc(-c2ccccc2)cc1` (stereo not drawn) [Compound 106], half-maximal inhibition (IC50) required 20 µM.

A further assay deals with Type III-dependent secretion of SipB (SPI1 type III protein secretion system). The assay can be described thus: Secondary assay: Type III-dependent protein secretion of the SipB polypeptide by S. enterica. The format is cell-based. The following applies: Salmonella enterica, read-out: SipB IC50(μM). Here is the method: Secondary assay: Type III-dependent protein secretion of the SipB polypeptide by S. enterica. The SipB protein of S. enterica is another effector of the SPI1 type III protein secretion system from S. enterica. In this cell-based procedure, the Type III-dependent secretion of SipB from the bacterial cytoplasm to the extracellular medium was measured through its reactivity with a cognate mouse monoclonal.
Salmonella enterica cells growing either in the presence or in the absence of inhibitors are induced for the production of SipB. Following an established period of growth the cells are sedimented and the amount of SipB present in the supernatant is quantified with a scanning imager following application of immunoblot techniques. Detection may employ an anti-SipB mouse monoclonal antibody (e.g., obtained from Jorge Galan, SUNY at Stony Brook, N.Y.) followed by treatment with commercially available sheep anti-mouse polyclonal antibody conjugated with horseradish peroxidase. Thereafter the membrane is treated with a peroxidase chemiluminescent substrate and exposed to film for an appropriate exposure time. Inhibition may be measured relative to untreated controls.
In the case of `O=C(N[C@H](CO)CSCc1ccccc1)/C(=C\c1ccc(-c2ccccc2)cc1)NC(=O)c1ccc(C(F)(F)F)cc1` [Compound 14], the IC50 was 77.3 µM.

By IC50 is commonly meant the concentration at which inhibition is half-maximal.

The record behind these values is US20050250819A1 (priority 2004, published 2005).
